Assay [1] deals with KRAS G12C and CDKN2A-mutated LU99 xenograft. The experiment in a line: LU99 xenograft, Compound A with ribociclib (Example 7). The class given is in vivo. To be noted: LU99 xenograft in mice.
Assay [2] has as its system KRAS G12C, PIK3CA and CDKN2A-mutated LU99 xenograft. The experiment in a line: LU99 xenograft, single agent and double, triple, quadruple combinations (Example 8). The assay is classed as in vivo, mice. To be noted: 7.5 mg/kg daily.

Each structure is given as a SMILES string.

Turning to `CN(C)C(=O)c1cc2cnc(Nc3ccc(N4CCNCC4)cn3)nc2n1C1CCCC1` [ribociclib, reference compound], the “effect on tumor growth” value in assay [1] is on record as “did not have any effect on tumor growth”.
As to `C[C@@H]1OCC2(CCN(c3cnc(Sc4ccnc(N)c4Cl)c(N)n3)CC2)[C@@H]1N` [TNO155, (3S,4S)-8-(6-amino-5-((2-amino-3-chloropyridin-4-yl)thio)pyrazin-2-yl)-3-methyl-2-oxa-8-azaspiro[4.5]decan-4-amine, reference compound], the “effect on tumor growth compared to the vehicle group” value in assay [2] is reported as “did not have any effect on tumor growth”.
